Consider nine molecules from ChEMBL document CHEMBL3739277, “Design, synthesis, and antibacterial evaluation of novel azolylthioether quinolones as MRSA DNA intercalators” (2015).

Common to all, as to assay type: functional
For experiment [1], the system named is Cyberlindnera jadinii. The experiment can be described thus: Antifungal activity against Candida utilis ATCC9950 assessed as growth inhibition incubated at 35 degC for 24 hrs by micro broth dilution method. As to conditions: Williopsis jadinii, ATCC9950, 24 h. A general note: Dilution methods test growth across graded concentrations, often in twofold steps.

The test system of experiment [2] is Aspergillus flavus. Description: Antifungal activity against Aspergillus flavus ATCC204304 assessed as growth inhibition incubated at 35 degC for 24 hrs by micro broth dilution method. As to conditions: ATCC204304, 24 h.
Experiment [3] deals with Saccharomyces cerevisiae. The experiment can be described thus: Antifungal activity against Saccharomyces cerevisiae ATCC9763 assessed as growth inhibition incubated at 35 degC for 24 hrs by micro broth dilution method. The settings on record: ATCC9763, 24 h.
The subject of experiment [4] is Candida albicans. The experiment can be described thus: Antifungal activity against Candida albicans ATCC10231 assessed as growth inhibition incubated at 35 degC for 24 hrs by micro broth dilution method. The settings on record: ATCC10231, 24 h.
Experiment [5] can be described thus: Antifungal activity against Candida mycoderma ATCC9888 assessed as growth inhibition incubated at 35 degC for 24 hrs by micro broth dilution method. As to conditions: Kregervanrija fluxuum.
The test system of experiment [6] is Micrococcus luteus. The experiment can be described thus: Antibacterial activity against Micrococcus luteus ATCC4698 assessed as growth inhibition incubated at 37 degC for 24 hrs by micro broth dilution method. As to conditions: ATCC4698, 24 h.
Experiment [7] has as its system Staphylococcus aureus. The experiment can be described thus: Antibacterial activity against methicillin resistant Staphylococcus aureus N315 assessed as growth inhibition incubated at 37 degC for 24 hrs by micro broth dilution method. As to conditions: N315, 24 h.
Experiment [8] relates to Staphylococcus aureus. The experiment can be described thus: Antibacterial activity against Staphylococcus aureus ATCC25923 assessed as growth inhibition incubated at 37 degC for 24 hrs by micro broth dilution method. As to conditions: ATCC25923, 24 h.
For experiment [9], the system named is Bacillus subtilis. Description: Antibacterial activity against Bacillus subtilis ATCC6633 assessed as growth inhibition incubated at 37 degC for 24 hrs by micro broth dilution method. As to conditions: ATCC6633, 24 h.
Experiment [10] relates to Pseudomonas aeruginosa. The experiment can be described thus: Antibacterial activity against Pseudomonas aeruginosa ATCC27853 assessed as growth inhibition incubated at 37 degC for 24 hrs by micro broth dilution method. The settings on record: ATCC27853, 24 h.
The subject of experiment [11] is Escherichia coli. The experiment can be described thus: Antibacterial activity against Escherichia coli JM109 assessed as growth inhibition incubated at 37 degC for 24 hrs by micro broth dilution method. The settings on record: JM109, 24 h.
Experiment [12] can be described thus: Antibacterial activity against Eberthella typhosa ATCC14028 assessed as growth inhibition incubated at 37 degC for 24 hrs by micro broth dilution method. As to conditions: ATCC14028, 24 h.
A short description of experiment [13]: Antibacterial activity against Bacillus proteus ATCC13315 assessed as growth inhibition incubated at 37 degC for 24 hrs by micro broth dilution method. The settings on record: ATCC13315, 24 h.

In brackets after ≈: the same amount, converted by molar mass.

As to `CCn1cc(C(=O)O)c(=O)c2cc(F)c(N3CCN(CC(O)CSc4ncn(Cc5ccc(Cl)c(Cl)c5)n4)CC3)cc21` (configuration not stated), the MIC80 (as a rule, the lowest concentration that inhibits either 80% of growth or 80% of the strains tested, depending on the study) in experiment [1] stood at 128 µg/mL (≈ 201 µM); in experiment [2], 16 µg/mL (≈ 25.2 µM); in experiment [3], 32 µg/mL (≈ 50.4 µM); in experiment [4] it was 64 µg/mL (≈ 101 µM); in experiment [5] it was 128 µg/mL (≈ 201 µM). In addition, the MIC (as a rule, the smallest concentration in the dilution series that meets the test's criterion for growth inhibition) was found to be 32 µg/mL (≈ 50.4 µM) in experiment [6]; 8 µg/mL (≈ 12.6 µM) in experiment [7]; 4 µg/mL (≈ 6.29 µM) in [8]; 128 µg/mL (≈ 201 µM) in experiment [9]; 64 µg/mL (≈ 101 µM) in [10]; 16 µg/mL (≈ 25.2 µM) in [11]. Also, the MIC in experiment [12] was 64 µg/mL (≈ 101 µM); in experiment [13], 8 µg/mL (≈ 12.6 µM).

For `O=C(O)c1cn(C2CC2)c2c(Cl)c(N3CCC(NCC(O)CSc4ncn(Cc5ccc(Cl)c(Cl)c5)n4)C3)c(F)cc2c1=O` (configuration not stated), the MIC80 was 8 µg/mL (≈ 11.7 µM) in experiment [1]; 8 µg/mL (≈ 11.7 µM) in experiment [2]; 16 µg/mL (≈ 23.5 µM) in experiment [3]; 0.5 µg/mL (≈ 0.733 µM) in experiment [4]; 1 µg/mL (≈ 1.47 µM) in experiment [5]. In addition, the MIC in experiment [6] worked out at 0.5 µg/mL (≈ 0.733 µM); in experiment [7] it was 0.5 µg/mL (≈ 0.733 µM); in [8], 0.5 µg/mL (≈ 0.733 µM); in experiment [9], 0.5 µg/mL (≈ 0.733 µM); in experiment [10] it was 0.5 µg/mL (≈ 0.733 µM); in experiment [11], 1 µg/mL (≈ 1.47 µM). For the same molecule, the MIC in experiment [12] and in experiment [13] was 0.5 µg/mL (≈ 0.733 µM) throughout.

On to `CCn1cc(C(=O)O)c(=O)c2cc(F)c(N3CCN(CC4CO4)CC3)cc21` (configuration not stated), for which the MIC80 is 8 µg/mL (≈ 21.3 µM) in experiment [1]; 1 µg/mL (≈ 2.66 µM) in experiment [2]; 1 µg/mL (≈ 2.66 µM) in experiment [3]; 4 µg/mL (≈ 10.7 µM) in experiment [4]; 1 µg/mL (≈ 2.66 µM) in [5]. Further, the MIC amounted to 8 µg/mL (≈ 21.3 µM) in [6]; 2 µg/mL (≈ 5.33 µM) in experiment [7]; 8 µg/mL (≈ 21.3 µM) in experiment [8]; 64 µg/mL (≈ 170 µM) in [9]; 16 µg/mL (≈ 42.6 µM) in experiment [10]; 2 µg/mL (≈ 5.33 µM) in experiment [11]. Also, the figures for the minimum inhibitory concentration (MIC) in [12] and in experiment [13] were 16 µg/mL (≈ 42.6 µM) and 4 µg/mL (≈ 10.7 µM), respectively.

For `Cn1nnnc1SCC(O)CNC1CCN(c2c(F)cc3c(=O)c(C(=O)O)cn(C4CC4)c3c2Cl)C1` (configuration not stated), the MIC80 in [1] came to 128 µg/mL (≈ 238 µM); in experiment [2], 1 µg/mL (≈ 1.86 µM); in experiment [3] it was 1 µg/mL (≈ 1.86 µM); in experiment [4], 2 µg/mL (≈ 3.72 µM); in experiment [5], 1 µg/mL (≈ 1.86 µM). For the same molecule, the MIC in experiment [6] turned out to be 1 µg/mL (≈ 1.86 µM); in [7], 2 µg/mL (≈ 3.72 µM); in [8] it was 2 µg/mL (≈ 3.72 µM); in experiment [9], 1 µg/mL (≈ 1.86 µM); in experiment [10], 1 µg/mL (≈ 1.86 µM); in experiment [11], 1 µg/mL (≈ 1.86 µM). The MIC in experiment [12] and in [13] was 1 µg/mL (≈ 1.86 µM) throughout.

Consider `O=C(O)c1cn(C2CC2)c2cc(N3CCN(CC(O)Cn4cnc(S)n4)CC3)c(F)cc2c1=O` (configuration not stated), for which the MIC80 in [1] is 128 µg/mL (≈ 262 µM); in experiment [2], 64 µg/mL (≈ 131 µM); in experiment [3], 64 µg/mL (≈ 131 µM); in experiment [4], 8 µg/mL (≈ 16.4 µM); in experiment [5], 32 µg/mL (≈ 65.5 µM). The MIC in [6] worked out at 16 µg/mL (≈ 32.8 µM); in experiment [7], 16 µg/mL (≈ 32.8 µM); in experiment [8] it was 2 µg/mL (≈ 4.09 µM); in experiment [9], 4 µg/mL (≈ 8.19 µM); in experiment [10], 4 µg/mL (≈ 8.19 µM); in experiment [11], 8 µg/mL (≈ 16.4 µM). The MIC in experiment [12] amounted to 1 µg/mL (≈ 2.05 µM); in experiment [13], 4 µg/mL (≈ 8.19 µM).

As for `O=C(O)c1cn(C2CC2)c2c(Cl)c(N3CCC(NCC4CO4)C3)c(F)cc2c1=O` (configuration not stated), the MIC80 in [1] is 4 µg/mL (≈ 9.48 µM); in experiment [2], 0.5 µg/mL (≈ 1.19 µM); in experiment [3] it was 0.25 µg/mL (≈ 0.593 µM); in [4] it was 2 µg/mL (≈ 4.74 µM); in experiment [5], 2 µg/mL (≈ 4.74 µM). For the same molecule, the MIC in [6] amounted to 0.25 µg/mL (≈ 0.593 µM); in experiment [8] it was 0.5 µg/mL (≈ 1.19 µM); in [9], 0.25 µg/mL (≈ 0.593 µM); in experiment [10], 0.5 µg/mL (≈ 1.19 µM); in [11], 0.5 µg/mL (≈ 1.19 µM); in [13], 0.25 µg/mL (≈ 0.593 µM).

As to `NC1CCN(c2c(F)cc3c(=O)c(C(=O)O)cn(C4CC4)c3c2Cl)C1` (configuration not stated) [CLINAFLOXACIN], the MIC in experiment [6] is 0.5 µg/mL (≈ 1.37 µM); in experiment [7], 1 µg/mL (≈ 2.73 µM); in experiment [8], 0.5 µg/mL (≈ 1.37 µM); in experiment [9], 0.5 µg/mL (≈ 1.37 µM); in experiment [10], 1 µg/mL (≈ 2.73 µM); in [11] it was 1 µg/mL (≈ 2.73 µM). The MIC worked out at 1 µg/mL (≈ 2.73 µM) in experiment [12] and 0.5 µg/mL (≈ 1.37 µM) in [13].

As to `OC(Cn1cncn1)(Cn1cncn1)c1ccc(F)cc1F` [FLUCONAZOLE], the MIC80 in experiment [1] was 8 µg/mL (≈ 26.1 µM); in [2], 256 µg/mL (≈ 836 µM); in [3] it was 16 µg/mL (≈ 52.2 µM); in [4], 1 µg/mL (≈ 3.27 µM); in experiment [5], 4 µg/mL (≈ 13.1 µM).

For `CCn1cc(C(=O)O)c(=O)c2cc(F)c(N3CCNCC3)cc21` [NORFLOXACIN], the MIC in [6] amounted to 2 µg/mL (≈ 6.26 µM); in experiment [7] it was 2 µg/mL (≈ 6.26 µM); in experiment [8], 2 µg/mL (≈ 6.26 µM); in [9], 1 µg/mL (≈ 3.13 µM); in [10], 4 µg/mL (≈ 12.5 µM); in experiment [11], 2 µg/mL (≈ 6.26 µM). Further, the MIC in [12] was 1 µg/mL (≈ 3.13 µM); in experiment [13] it was 8 µg/mL (≈ 25.1 µM).
